# Counter-ions that a name gives are not always drawn. Like-named read-outs stand apart in the source and are kept apart here.
# Tests used:
# [1] = Storage (chemical) stability of HFA134a/ethanol pMDI solution; assay type: physicochemical; settings: BDP in ethanol/HFA134a mixture, room temperature
# Method: However, although it has the apparent pH adjusted according to the teaching of WO 01/89480 for improving its chemical stability, due to the limited stability of formoterol in solution, said formulation can be stored for no longer than 15 months at a refrigerator temperature (from +2 to +8° C.) and for no longer than 5 months at room temperature.
# [2] = Aerosol performances by Andersen Cascade Impactor (Eur. Pharm. 2.09.18), HPLC quantification; assay type: physicochemical; settings: Example 5 formulation, mean n = 2; for Delivered Dose: 63 μl valve, nominal 6 μg formoterol / 50 μg BDP per actuation; for Fine particle dose: ACI S3 to filter, particles ≦4.7 microns; for Fine particle fraction: ratio respirable dose / delivered dose
# Method: This formulation was filled into an aluminum canister under pressure and fitted with a metering valve having a 63 μl metering chamber.
# Quantification of beclometasone dipropionate (BDP) and formoterol fumarate dehydrate (FF) was performed using a HPLC method. The following parameters were determined: • i) delivered dose is calculated from the cumulative deposition in the ACI, divided by the number of actuations per experiment; • ii) respirable dose (fine particle dose=FPD) is obtained from the deposition from Stages 3 (S3) to filter (AF) of the ACI, corresponding to particles of diameter ≦4.7 microns, divided by the number of actuations per experiment; • iii) respirable fraction (fine particle fraction=FPF) which is the percent ratio between the respirable dose and the delivered dose; • iv) mass median aerodynamic diameter (MMAD) which is the diameter around which the mass aerodynamic diameters of the emitted particles are distributed equally; and • v) Geometric standard deviation (GSD) which is a measure of the spread of the aerodynamic particle size distribution.
Compound,storage time without significant degradation [1],Delivered Dose [2],Fine particle dose [2],GSD [2],MMAD [2],Fine particle fraction [2],change of formoterol fumarate dihydrate solubility in the presence of BDP (HFA227:ethanol 92.5:7.5 (w/w)),change of formoterol fumarate dihydrate solubility in the presence of BDP (HFA227:ethanol 97.3:2.7 (w/w))
"CCC(=O)OCC(=O)[C@@]1(OC(=O)CC)[C@@H](C)C[C@H]2[C@@H]3CCC4=CC(=O)C=C[C@]4(C)[C@@]3(Cl)[C@@H](O)C[C@@]21C [BDP, (8S,9R,10S,11S,13S,14S,16S,17R)-9-chloro-11-hydroxy-10,13,16-trimethyl-3-oxo-17-[2-(propionyloxy)acetyl]-6,7,8,9,10,11,12,13,14,15,16,17-dodecahydro-3H-cyclopenta[a]phenanthren-17-yl propionate]",at least 35 months,46.0 µg,30.0 µg,2.2,1.1 μm,64.0%,,
"COc1ccc(C[C@@H](C)NC[C@H](O)c2ccc(O)c(NC=O)c2)cc1 (racemic) [formoterol fumarate dihydrate, 2′-hydroxy-5′-[(RS)-1-hydroxy-2{[(RS)-p-methoxy-α-methylphenethyl]amino}ethyl]formanilide]",,3.9 µg,2.3 µg,1.5,2.0 μm,59.3%,does not change,does not change
